Test results from ChEMBL document CHEMBL4130457, “Discovery of AZD-2098 and AZD-1678, Two Potent and Bioavailable CCR4 Receptor Antagonists” (ACS Med Chem Lett, 2017).
Active and inactive are the calls of the source. The calls are words filed in the database; no cut-off is given here.

Assays:
[1] = Protein binding in human plasma; format: ADME, cell-free; details: read-out: PPB (converted)
[2] = target: T1, C-X-C chemokine receptor type 2 (Homo sapiens) (UniProt P25025); experiment: Antagonist activity at CXCR2 (unknown origin) at 10 uM; format: functional
T1 sequence (whole entry): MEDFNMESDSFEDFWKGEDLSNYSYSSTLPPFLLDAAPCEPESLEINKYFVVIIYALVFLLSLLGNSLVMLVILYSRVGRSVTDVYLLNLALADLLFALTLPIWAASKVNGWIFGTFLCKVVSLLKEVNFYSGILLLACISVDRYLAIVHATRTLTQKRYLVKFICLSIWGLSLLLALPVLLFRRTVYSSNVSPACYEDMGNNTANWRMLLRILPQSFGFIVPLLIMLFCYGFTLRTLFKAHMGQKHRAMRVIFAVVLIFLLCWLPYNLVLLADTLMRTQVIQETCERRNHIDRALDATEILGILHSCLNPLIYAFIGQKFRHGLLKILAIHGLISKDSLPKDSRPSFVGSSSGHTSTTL

[3] = target: C-C chemokine receptor type 5 (Homo sapiens) (UniProt P51681); experiment: Antagonist activity at CCR5 (unknown origin) at 10 uM; format: functional
[4] = target: T2, C-C chemokine receptor type 7 (Homo sapiens) (UniProt P32248); experiment: Antagonist activity at CCR7 (unknown origin) at 10 uM; format: functional
T2 sequence (whole entry): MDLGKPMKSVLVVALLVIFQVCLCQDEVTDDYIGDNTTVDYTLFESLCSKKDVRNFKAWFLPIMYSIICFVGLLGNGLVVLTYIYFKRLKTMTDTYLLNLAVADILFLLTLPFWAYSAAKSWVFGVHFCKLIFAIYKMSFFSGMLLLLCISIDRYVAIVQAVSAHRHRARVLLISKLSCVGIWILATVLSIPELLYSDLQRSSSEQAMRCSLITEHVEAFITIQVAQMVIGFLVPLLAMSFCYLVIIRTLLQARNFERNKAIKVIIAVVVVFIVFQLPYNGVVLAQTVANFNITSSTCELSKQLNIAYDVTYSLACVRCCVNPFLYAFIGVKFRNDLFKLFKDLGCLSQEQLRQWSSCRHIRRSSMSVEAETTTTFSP

[5] = Volume of distribution at steady state in rat at 9 umol/kg, po or 3 umol/kg, iv; format: ADME, organism-based; details: in vivo, read-out: Vdss
[6] = Volume of distribution at steady state in dog at 9 umol/kg, po or 3 umol/kg, iv; format: ADME, organism-based, Canis lupus familiaris; details: in vivo, read-out: Vdss
[7] = Half life in rat at 9 umol/kg, po or 3 umol/kg, iv; format: ADME, organism-based; details: in vivo
[8] = Half life in dog at 9 umol/kg, po or 3 umol/kg, iv; format: ADME, organism-based, Canis lupus familiaris; details: in vivo
[9] = Oral bioavailability in rat at 9 umol/kg; format: ADME, organism-based; details: in vivo
Rattus norvegicus [10] = experiment: Antiinflammatory activity in OVA-induced Brown Norway rat lung assessed as reduction in alveolitis administered po bid 1 hr prior to antigen challenge and every 12 hrs prior to termination 96 hrs post challenge by histopathological analysis; format: functional, organism-based
Rattus norvegicus [11] = experiment: Antiinflammatory activity in OVA-induced Brown Norway rat lung assessed as reduction in leukocyte trafficking in microvasculature administered po bid 1 hr prior to antigen challenge and every 12 hrs prior to termination 96 hrs post challenge by histopathological analysis; format: functional, organism-based

Chain of C-C chemokine receptor type 5 (Homo sapiens) (P51681 whole entry, looked up): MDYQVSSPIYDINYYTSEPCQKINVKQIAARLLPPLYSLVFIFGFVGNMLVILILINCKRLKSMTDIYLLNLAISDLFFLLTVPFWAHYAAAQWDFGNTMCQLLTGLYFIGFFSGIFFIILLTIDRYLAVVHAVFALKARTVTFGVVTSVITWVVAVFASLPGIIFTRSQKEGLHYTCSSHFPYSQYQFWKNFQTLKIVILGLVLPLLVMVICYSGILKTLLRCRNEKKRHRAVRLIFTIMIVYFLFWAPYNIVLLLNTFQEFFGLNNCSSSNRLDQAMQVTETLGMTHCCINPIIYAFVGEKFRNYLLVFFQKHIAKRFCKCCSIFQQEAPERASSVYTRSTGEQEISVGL

## COc1nccnc1NS(=O)(=O)c1cccc(Cl)c1Cl
[1]
  fraction unbound: 0.011
[2]
  Activity: inactive
[3]
  Activity: inactive
[4]
  Activity: inactive
[5]
  Vd: 0.2 L/kg
[6]
  Vd: 0.1 L/kg
[7]
  half-life: 1.7 h
[8]
  half-life: 1 h
[9]
  bioavailability: 100%
Rattus norvegicus [10]
  Activity: Dose-dependent effect
Rattus norvegicus [11]
  Activity: Dose-dependent effect
